# Source: publication PMC3356383, “Efficacious Intermittent Dosing of a Novel JAK2 Inhibitor in Mouse Models of Polycythemia Vera” (PLoS ONE, 2012)
# Legend:
# Lck = test: Kinase profiling (Millipore); type: biochemical; conditions: IC50s measured at ATP Km, fold increase relative to JAK2
# Experimental: (§1) Kinase profiling was conducted by Millipore (Billerica, MA).
# (§2) Supplementary file pone.0037207.s003.doc: Table S1 Recombinant Kinase Selectivity Profile of MRLB-11055. IC50s measured at ATP Km, and fold increase relative to JAK2 is reported. (DOC) Click here for additional data file.
# CaMKIIδ = test: Kinase profiling (Millipore); type: biochemical; conditions: IC50s measured at ATP Km, fold increase relative to JAK2
# Experimental: as §1, §2
# Bmx = test: Kinase profiling (Millipore); type: biochemical; conditions: IC50s measured at ATP Km, fold increase relative to JAK2
# Experimental: as §1, §2
# cSRC = test: Kinase profiling (Millipore); type: biochemical; conditions: IC50s measured at ATP Km, fold increase relative to JAK2
# Experimental: as §1, §2
# ACK1 = test: Kinase profiling (Millipore); type: biochemical; conditions: IC50s measured at ATP Km, fold increase relative to JAK2
# Experimental: as §1, §2
# Ret = test: Kinase profiling (Millipore); type: biochemical; conditions: IC50s measured at ATP Km, fold increase relative to JAK2
# Experimental: as §1, §2
# Fgr = test: Kinase profiling (Millipore); type: biochemical; conditions: IC50s measured at ATP Km, fold increase relative to JAK2
# Experimental: as §1, §2
# PTK5 = test: Kinase profiling (Millipore); type: biochemical; conditions: IC50s measured at ATP Km, fold increase relative to JAK2
# Experimental: as §1, §2
# Fyn = test: Kinase profiling (Millipore); type: biochemical; conditions: IC50s measured at ATP Km, fold increase relative to JAK2
# Experimental: as §1, §2
# BTK = test: Kinase profiling (Millipore); type: biochemical; conditions: IC50s measured at ATP Km, fold increase relative to JAK2
# Experimental: as §1, §2
# CaMKIIγ = test: Kinase profiling (Millipore); type: biochemical; conditions: IC50s measured at ATP Km, fold increase relative to JAK2
# Experimental: as §1, §2
# Fms = test: Kinase profiling (Millipore); type: biochemical; conditions: IC50s measured at ATP Km, fold increase relative to JAK2
# Experimental: as §1, §2
# Flt3 = test: Kinase profiling (Millipore); type: biochemical; conditions: IC50s measured at ATP Km, fold increase relative to JAK2
# Experimental: as §1, §2
# ARK5 = test: Kinase profiling (Millipore); type: biochemical; conditions: IC50s measured at ATP Km, fold increase relative to JAK2
# Experimental: as §1, §2
# Hck = test: Kinase profiling (Millipore); type: biochemical; conditions: IC50s measured at ATP Km, fold increase relative to JAK2
# Experimental: as §1, §2
# Yes = test: Kinase profiling (Millipore); type: biochemical; conditions: IC50s measured at ATP Km, fold increase relative to JAK2
# Experimental: as §1, §2
# TrkA = test: Kinase profiling (Millipore); type: biochemical; conditions: IC50s measured at ATP Km, fold increase relative to JAK2
# Experimental: as §1, §2
# MLK1 = test: Kinase profiling (Millipore); type: biochemical; conditions: IC50s measured at ATP Km, fold increase relative to JAK2
# Experimental: as §1, §2
# TrkB = test: Kinase profiling (Millipore); type: biochemical; conditions: IC50s measured at ATP Km, fold increase relative to JAK2
# Experimental: as §1, §2
# Lyn = test: Kinase profiling (Millipore); type: biochemical; conditions: IC50s measured at ATP Km, fold increase relative to JAK2
# Experimental: as §1, §2
# PRK2 = test: Kinase profiling (Millipore); type: biochemical; conditions: IC50s measured at ATP Km, fold increase relative to JAK2
# Experimental: as §1, §2
# JAK1 (JH1) = target: T1, JAK1 (JH1) (Homo sapiens, UniProt P23458); test: JAK1 enzyme assay, HTRF detection; type: biochemical
# T1 construct: JAK1 (JH1)
# Experimental: (§3) JAK1, JAK2, JAK3, and TYK2 kinase activity assays were performed as described previously using HTRF detection technology and the peptide substrate amino hexanoyl biotin-EQEDEPEGDYFEWLE-NH2. Each reaction was incubated between 60 and 80 min at room temperature. Final conditions were as follows: JAK1, 400 pM enzyme, Hepes pH 7.5, 10 mM MgCl2, 0.01% Brij-35, 1 mM EGTA, 0.1 mg/ml BSA), 2 mM DTT, 2 µM peptide substrate, 25 µM MgATP, 5% DMSO and the desired concentration of subject compound; JAK2, 25 pM enzyme (JH1, JH1–JH2^wt, JH1–JH2^V617F domains), 2 µM peptide substrate, 15 µM MgATP, 5 mM MgCl2, 100 mM NaCl, 2 mM DTT, 0.1 mg/ml BSA, 50 mM Tris (pH 7.4), 5% DMSO and the desired concentration of subject compound; JAK3, 250 pM enzyme, 50 mM Hepes pH 7.5, 10 mM MgCl2, 0.01% Brij-35, 1 mM EGTA, 0.1 mg/ml BSA), 2 mM DTT, 2.0 µM peptide substrate, 25 µM MgATP, 5% DMSO, and the desired concentration of subject compound; TYK2, 125 pM enzyme, 50 mM Hepes pH 7.5, 10 mM MgCl2, 0.01% Brij-35, 1 mM EGTA, 0.1 mg/ml BSA, 2 mM DTT, 2.0 µM peptide substrate, 15 µM MgATP, 5% DMSO and the desired concentration of subject compound.
# TYK2 (JH1) = target: T2, TYK2 (JH1) (Homo sapiens, UniProt P29597); test: TYK2 enzyme assay, HTRF detection; type: biochemical
# T2 construct: TYK2 (JH1)
# Experimental: as §3
# H2122 cells = test: Cell proliferation, ViaLight assay; type: cell-based; conditions: Homo sapiens, NCI-H2122, 48 hour, epithelial lung cancer cell line
# Experimental: (§4) Cell proliferation was measured by ViaLight (Lonza Group Ltd) assay as follows. Cells (1000–2000) were seeded into 384-well plates and incubated 16 hours @ 37°C, 5% CO2. […] Cells were lysed and ATP detected as per the manufacturer protocol.
# BaF3 (JAK2 V617F) cells = test: Cell proliferation, ViaLight assay; type: cell-based; conditions: Mus musculus, 48 hour
# Experimental: as §4
# BaF3 (JAK2 WT) cells = test: Cell proliferation, ViaLight assay; type: cell-based; conditions: Mus musculus, 48 hour, EPO-stimulated
# Experimental: as §4
# CTLL-2 cells = test: Cell proliferation, ViaLight assay; type: cell-based
# Experimental: as §4
# [1] = test system: pSTAT5 in BaF3 (JAK2 V617F) cells; test: Cell pSTAT5 AlphaScreen SureFire assay; type: cell-based; conditions: Mus musculus, 1 hour
# Experimental: (§5) Measurement of pSTAT5 in cells was performed essentially as described previously using an AlphaScreen™ SureFire™ (Perkin Elmer) assay. BaF3 (JAK2 WT), BaF3 (JAK2 V617F), and CTLL-2 cells were exposed to compound for 60 min prior to lysis and subsequent detection of pSTAT5 via AlphaScreen technology. Prior to compound treatment, BaF3 (JAK2 WT) and CTLL-2 cells were cytokine starved overnight, with EPO or IL-2 added 15 minutes prior to lysis, respectively.
# [2] = test system: pSTAT5 in BaF3 (JAK2 WT) cells; test: Cell pSTAT5 AlphaScreen SureFire assay; type: cell-based; conditions: Mus musculus, 1 hour, EPO-stimulated
# Experimental: as §5
# [3] = test system: pSTAT5 in CTLL-2 cells (JAK1 and JAK3 dependent); test: Cell pSTAT5 AlphaScreen SureFire assay; type: cell-based
# Experimental: as §5
# T2 sequence (P29597 897-1176 limits assumed, species assumed): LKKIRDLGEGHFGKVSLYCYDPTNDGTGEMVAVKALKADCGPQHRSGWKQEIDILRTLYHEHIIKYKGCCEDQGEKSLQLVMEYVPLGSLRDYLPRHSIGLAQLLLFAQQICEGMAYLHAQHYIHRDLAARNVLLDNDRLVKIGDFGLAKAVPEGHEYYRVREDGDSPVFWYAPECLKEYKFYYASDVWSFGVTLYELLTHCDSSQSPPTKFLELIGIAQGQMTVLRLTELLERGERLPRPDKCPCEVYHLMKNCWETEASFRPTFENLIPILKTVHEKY
# T1 sequence (P23458 875-1153 limits assumed, species assumed): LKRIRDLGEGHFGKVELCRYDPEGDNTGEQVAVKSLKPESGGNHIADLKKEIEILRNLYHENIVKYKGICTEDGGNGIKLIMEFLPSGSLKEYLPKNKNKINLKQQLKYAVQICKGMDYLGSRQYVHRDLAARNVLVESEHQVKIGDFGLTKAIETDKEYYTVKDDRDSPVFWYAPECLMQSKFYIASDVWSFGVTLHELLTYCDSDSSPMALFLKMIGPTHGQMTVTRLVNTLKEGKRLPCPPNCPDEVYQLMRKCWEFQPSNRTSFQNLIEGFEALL
structure (smiles),measurement,setting,value
NC(=O)c1cnc(N[C@H](C2CC2)C(F)(F)F)c2c1[nH]c1cc(-c3cnc(N)nc3)ccc12 [MRLB-11055],"Fold-Shift /JAK2, Lck",Lck,5 fold
same,"Fold-Shift /JAK2, CaMKIIδ",CaMKIIδ,10 fold
same,"Fold-Shift /JAK2, Bmx",Bmx,4 fold
same,"Fold-Shift /JAK2, cSRC",cSRC,1 fold
same,"Fold-Shift /JAK2, ACK1",ACK1,2 fold
same,"Fold-Shift /JAK2, Ret",Ret,3 fold
same,"Fold-Shift /JAK2, Fgr",Fgr,5 fold
same,"Fold-Shift /JAK2, PTK5",PTK5,8 fold
same,"Fold-Shift /JAK2, Fyn",Fyn,2 fold
same,"Fold-Shift /JAK2, BTK",BTK,7 fold
same,"Fold-Shift /JAK2, CaMKIIγ",CaMKIIγ,11 fold
same,"Fold-Shift /JAK2, Fms",Fms,2 fold
same,"Fold-Shift /JAK2, Flt3",Flt3,3 fold
same,"Fold-Shift /JAK2, ARK5",ARK5,6 fold
same,"Fold-Shift /JAK2, Hck",Hck,3 fold
same,"Fold-Shift /JAK2, Yes",Yes,7 fold
same,"Fold-Shift /JAK2, TrkA",TrkA,1 fold
same,"Fold-Shift /JAK2, MLK1",MLK1,18 fold
same,"Fold-Shift /JAK2, TrkB",TrkB,8 fold
same,"Fold-Shift /JAK2, Lyn",Lyn,4 fold
same,"Fold-Shift /JAK2, PRK2",PRK2,13 fold
same,IC50,"JAK1 (JH1); HTRF, mean, n = 3, read-out: IC50, cell-free JAK1 (JH1)",0.0015 µM
same,Selectivity for JAK2 over JAK1,JAK1 (JH1); cell-free assays,20 fold
same,IC50,"TYK2 (JH1); HTRF, mean, n = 3, read-out: IC50, cell-free TYK2 (JH1)",0.00018 µM
same,Selectivity for JAK2 over Tyk2,TYK2 (JH1); cell-free assays,2 fold
same,IC50,H2122 cells,1.9 µM
same,IC50,BaF3 (JAK2 V617F) cells,0.029 µM
same,IC50,BaF3 (JAK2 WT) cells,0.014 µM
same,Fold more potent against IL-2-dependent CTLL cells than JAK2V617F BaF3 cells in proliferation assays,CTLL-2 cells,2 fold
same,IC50,"CTLL-2 cells; Mus musculus, CTLL-2, 48 hour, Vialight",0.013 µM
same,IC50,[1],0.011 µM
same,IC50,[2],0.023 µM
same,Times less potent on IL-2 stimulated CTLL-2 pSTAT5 than on JAK2V617F-mediated pSTAT5 in BaF3 cells,[3],6 times
same,IC50,"[3]; Mus musculus, CTLL-2, 1 hour, IL2-stimulated, JAK1 and JAK3 dependent",0.066 µM
